# Test results taken from publication PMC6100082, “Pyridine-Ureas as Potential Anticancer Agents: Synthesis and In Vitro Biological Evaluation” (Molecules : A Journal of Synthetic Chemistry and Natural …, 2018).
# Read-outs that look alike come from different tables or passages of the source.
# Columns and labels:
# HS 578T = experiment: NCI one-dose SRB assay (Breast Cancer); format: cell-based, human; details: for Growth Percent: 1.00E-5 Molar; for inhibition at 10 µM: Homo sapiens, read-out: Percentage growth inhibition (GI%)
# Procedure: (§1) The structures of all the newly prepared pyridine-ureas 8a–n were submitted to the National Cancer Institute (NCI) Developmental Therapeutic Program. Eight compounds 8b, 8d, 8e, 8i, 8j and 8l–n were selected to be examined for their in vitro growth inhibitory activity. The anticancer assays were carried out according to the protocol of the Drug Evaluation Branch, NCI, Bethesda. The selected pyridine-ureas were tested at one dose primary anticancer assay against a panel of approximately 58 cancer lines (concentration 10^−5 M). The tested human cancer cell lines emerged from nine different cancer subtypes: leukemia, colon, melanoma, ovarian, lung, CNS, renal, breast and prostate cancers. The sulforhodamine B (SRB) protein assay was adopted to estimate the cell viability and growth. The results were reported as mean-graph of the percentage growth of the treated cells, and presented as percentage growth inhibition (GI%) caused by the test compounds (Table 2).
# (§2) The anticancer assays were performed in accordance with the protocol of the Drug Evaluation Branch, NCI, Bethesda. A 48 h drug exposure protocol was used and sulforhodamine B (SRB) protein assay was applied to estimate the cell viability and growth, as reported earlier.
# MDA-MB-468 = experiment: NCI one-dose SRB assay (Breast Cancer); format: cell-based, human; details: for inhibition at 10 µM: Homo sapiens, MDA-MB-468, 10 μM, read-out: Percentage growth inhibition (GI%); for Growth Percent: MDA-MB-468, 1.00E-5 Molar
# Procedure: as §1, §2
# MDA-MB-231 = experiment: NCI one-dose SRB assay (Breast Cancer); format: cell-based, human; details: for inhibition at 10 µM: Homo sapiens, MDA-MB-231, 10 μM, read-out: Percentage growth inhibition (GI%); for Growth Percent: MDA-MB-231/ATCC, 1.00E-5 Molar
# Procedure: as §1, §2
# T-47D = experiment: NCI one-dose SRB assay (Breast Cancer); format: cell-based, human; details: for Growth Percent: 1.00E-5 Molar; for inhibition at 10 µM: Homo sapiens, T47D, read-out: Percentage growth inhibition (GI%)
# Procedure: as §1, §2
# BT-549 = experiment: NCI one-dose SRB assay (Breast Cancer); format: cell-based, human; details: for Growth Percent: BT-549, 1.00E-5 Molar; for inhibition at 10 µM: Homo sapiens, BT-549, 10 μM, read-out: Percentage growth inhibition (GI%)
# Procedure: as §1, §2
# MCF7 = experiment: NCI one-dose SRB assay (Breast Cancer); format: cell-based, human; details: for inhibition at 10 µM: Homo sapiens, MCF7, 10 μM, read-out: Percentage growth inhibition (GI%); for Growth Percent: MCF7, 1.00E-5 Molar
# Procedure: as §1, §2
# SW-620 = experiment: NCI one-dose SRB assay (Colon Cancer); format: cell-based, human; details: for inhibition at 10 µM: Homo sapiens, SW-620, 10 μM, read-out: Percentage growth inhibition (GI%); for Growth Percent: SW-620, 1.00E-5 Molar
# Procedure: as §1, §2
# COLO 205 = experiment: NCI one-dose SRB assay (Colon Cancer); format: cell-based, human; details: for Growth Percent: COLO 205, 1.00E-5 Molar; for inhibition at 10 µM: Homo sapiens, COLO 205, 10 μM, read-out: Percentage growth inhibition (GI%)
# Procedure: as §1, §2
# HT29 = experiment: NCI one-dose SRB assay (Colon Cancer); format: cell-based, human; details: for Growth Percent: HT29, 1.00E-5 Molar; for inhibition at 10 µM: Homo sapiens, HT-29, HT29, 10 μM, read-out: Percentage growth inhibition (GI%)
# Procedure: as §1, §2
# KM12 = experiment: NCI one-dose SRB assay (Colon Cancer); format: cell-based, human; details: for inhibition at 10 µM: Homo sapiens, KM12, 10 μM, read-out: Percentage growth inhibition (GI%); for Growth Percent: KM12, 1.00E-5 Molar
# Procedure: as §1, §2
# HCT-15 = experiment: NCI one-dose SRB assay (Colon Cancer); format: cell-based, human; details: for Growth Percent: HCT-15, 1.00E-5 Molar; for inhibition at 10 µM: Homo sapiens, HCT-15, 10 μM, read-out: Percentage growth inhibition (GI%)
# Procedure: as §1, §2
# HCC-2998 = experiment: NCI one-dose SRB assay (Colon Cancer); format: cell-based, human; details: for Growth Percent: HCC-2998, 1.00E-5 Molar; for inhibition at 10 µM: Homo sapiens, HCC-2998, 10 μM, read-out: Percentage growth inhibition (GI%)
# Procedure: as §1, §2
# HCT-116 = experiment: NCI one-dose SRB assay (Colon Cancer); format: cell-based, human; details: for Growth Percent: HCT-116, 1.00E-5 Molar; for inhibition at 10 µM: Homo sapiens, HCT-116, 10 μM, read-out: Percentage growth inhibition (GI%)
# Procedure: as §1, §2
# [1] = test system: breast cancer MCF-7 cell line; experiment: In vitro anti-proliferative activity, MTT assay; format: cell-based, human; details: MCF-7, MTT
# Method in brief: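 Growth inhibition was read colorimetrically by MTT, run in triplicate and averaged over at least three independent experiments. The cells were maintained in DMEM supplemented with 10 μg/mL insulin, 10% heat-inactivated FBS and 1% penicillin-streptomycin.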
# SK-MEL-28 = experiment: NCI one-dose SRB assay (Melanoma); format: cell-based, human; details: for inhibition at 10 µM: Homo sapiens, SK-MEL-28, 10 μM, read-out: Percentage growth inhibition (GI%); for Growth Percent: SK-MEL-28, 1.00E-5 Molar
# Procedure: as §1, §2
# M14 = experiment: NCI one-dose SRB assay (Melanoma); format: cell-based, human; details: for inhibition at 10 µM: Homo sapiens, M14, 10 μM, read-out: Percentage growth inhibition (GI%); for Growth Percent: M14, 1.00E-5 Molar
# Procedure: as §1, §2
# MDA-MB-435 = experiment: NCI one-dose SRB assay (Melanoma); format: cell-based, human; details: for inhibition at 10 µM: Homo sapiens, MDA-MB-435, 10 μM, read-out: Percentage growth inhibition (GI%); for Growth Percent: MDA-MB-435, 1.00E-5 Molar
# Procedure: as §1, §2
# LOX IMVI = experiment: NCI one-dose SRB assay (Melanoma); format: cell-based, human; details: for Growth Percent: 1.00E-5 Molar; for inhibition at 10 µM: Homo sapiens, read-out: Percentage growth inhibition (GI%)
# Procedure: as §1, §2
# MALME-3M = experiment: NCI one-dose SRB assay (Melanoma); format: cell-based, human; details: for Growth Percent: 1.00E-5 Molar; for inhibition at 10 µM: Homo sapiens, read-out: Percentage growth inhibition (GI%)
# Procedure: as §1, §2
# SK-MEL-2 = experiment: NCI one-dose SRB assay (Melanoma); format: cell-based, human; details: for inhibition at 10 µM: Homo sapiens, SK-MEL-2, 10 μM, read-out: Percentage growth inhibition (GI%); for Growth Percent: SK-MEL-2, 1.00E-5 Molar
# Procedure: as §1, §2
# UACC-257 = experiment: NCI one-dose SRB assay (Melanoma); format: cell-based, human; details: for inhibition at 10 µM: Homo sapiens, UACC-257, 10 μM, read-out: Percentage growth inhibition (GI%); for Growth Percent: UACC-257, 1.00E-5 Molar
# Procedure: as §1, §2
# UACC-62 = experiment: NCI one-dose SRB assay (Melanoma); format: cell-based, human; details: for inhibition at 10 µM: Homo sapiens, UACC-62, 10 μM, read-out: Percentage growth inhibition (GI%); for Growth Percent: UACC-62, 1.00E-5 Molar
# Procedure: as §1, §2
# SK-MEL-5 = experiment: NCI one-dose SRB assay (Melanoma); format: cell-based, human; details: for inhibition at 10 µM: Homo sapiens, SK-MEL-5, 10 μM, read-out: Percentage growth inhibition (GI%); for Growth Percent: SK-MEL-5, 1.00E-5 Molar
# Procedure: as §1, §2
# [2] = Homo sapiens, MCF7, 48 h, 48 h of incubation, read-out: IC50 48 h
# [3] = Homo sapiens, MCF7, 72 h, 72 h of incubation, read-out: IC50 72 h
structure (smiles),measurement,setting,value
"COc1ccc(-c2ccc(NC(=O)Nc3cccc(Cl)c3)c(C)n2)cc1OC [Compound 8j, 1-(3-Chlorophenyl)-3-(6-(3,4-dimethoxyphenyl)-2-methylpyridin-3-yl) Urea]",Growth Percent,HS 578T,95.46%
same,inhibition at 10 µM,HS 578T,< 10%
same,inhibition at 10 µM,MDA-MB-468,29%
same,Growth Percent,MDA-MB-468,71.36%
same,inhibition at 10 µM,MDA-MB-231,13%
same,Growth Percent,MDA-MB-231,87.05%
same,Growth Percent,T-47D,49.90%
same,inhibition at 10 µM,T-47D,51%
same,Growth Percent,BT-549,91.71%
same,inhibition at 10 µM,BT-549,< 10%
same,inhibition at 10 µM,MCF7,25%
same,Growth Percent,MCF7,75.86%
same,inhibition at 10 µM,SW-620,< 10%
same,Growth Percent,SW-620,98.24%
same,Growth Percent,COLO 205,93.06%
same,inhibition at 10 µM,COLO 205,< 10%
same,Growth Percent,HT29,74.98%
same,inhibition at 10 µM,HT29,26%
same,inhibition at 10 µM,KM12,22%
same,Growth Percent,KM12,78.93%
same,Growth Percent,HCT-15,60.62%
same,inhibition at 10 µM,HCT-15,40%
same,Growth Percent,HCC-2998,88.09%
same,inhibition at 10 µM,HCC-2998,12%
same,Growth Percent,HCT-116,63.31%
same,inhibition at 10 µM,HCT-116,37%
same,IC50,[1]; [2],10.1 µM
same,IC50,[1]; [3],26.2 ± 2.17 µM
same,IC50,"[1]; 48 h of incubation, read-out: IC50 48 h",10.9 ± 1.03 µM
same,inhibition at 10 µM,SK-MEL-28,21%
same,Growth Percent,SK-MEL-28,79.52%
same,inhibition at 10 µM,M14,50%
same,Growth Percent,M14,50.80%
same,inhibition at 10 µM,MDA-MB-435,13%
same,Growth Percent,MDA-MB-435,87.66%
same,Growth Percent,LOX IMVI,80.89%
same,inhibition at 10 µM,LOX IMVI,20%
same,Growth Percent,MALME-3M,98.93%
same,inhibition at 10 µM,MALME-3M,< 10%
same,inhibition at 10 µM,SK-MEL-2,16%
same,Growth Percent,SK-MEL-2,84.73%
same,inhibition at 10 µM,UACC-257,29%
same,Growth Percent,UACC-257,71.26%
same,inhibition at 10 µM,UACC-62,25%
same,Growth Percent,UACC-62,75.01%
same,inhibition at 10 µM,SK-MEL-5,32%
same,Growth Percent,SK-MEL-5,68.63%
same,melting point,,249 to 250 °C
"COc1cccc(NC(=O)Nc2ccc(-c3ccc(OC)c(OC)c3)nc2C)c1 [Compound 8m, 1-(6-(3,4-Dimethoxyphenyl)-2-methylpyridin-3-yl)-3-(3-methoxyphenyl) Urea]",Growth Percent,HS 578T,99.31%
same,inhibition at 10 µM,HS 578T,< 10%
same,inhibition at 10 µM,MDA-MB-468,< 10%
same,Growth Percent,MDA-MB-468,99.00%
same,inhibition at 10 µM,MDA-MB-231,< 10%
same,Growth Percent,MDA-MB-231,106.37%
same,Growth Percent,T-47D,81.11%
same,inhibition at 10 µM,T-47D,19%
same,Growth Percent,BT-549,87.21%
same,inhibition at 10 µM,BT-549,13%
same,inhibition at 10 µM,MCF7,10%
same,Growth Percent,MCF7,90.01%
same,inhibition at 10 µM,SW-620,< 10%
same,Growth Percent,SW-620,101.68%
same,Growth Percent,COLO 205,119.56%
same,inhibition at 10 µM,COLO 205,< 10%
same,Growth Percent,HT29,75.95%
same,inhibition at 10 µM,HT29,25%
same,inhibition at 10 µM,KM12,< 10%
same,Growth Percent,KM12,96.43%
same,Growth Percent,HCT-15,91.11%
same,inhibition at 10 µM,HCT-15,< 10%
same,Growth Percent,HCC-2998,97.15%
same,inhibition at 10 µM,HCC-2998,< 10%
same,Growth Percent,HCT-116,78.84%
same,inhibition at 10 µM,HCT-116,22%
same,IC50,[1]; [2],23 ± 1.91 µM
same,IC50,[1]; [3],13.1 ± 1.12 µM
same,inhibition at 10 µM,SK-MEL-28,< 10%
same,Growth Percent,SK-MEL-28,99.69%
same,inhibition at 10 µM,M14,10%
same,Growth Percent,M14,90.93%
same,inhibition at 10 µM,MDA-MB-435,< 10%
same,Growth Percent,MDA-MB-435,100.45%
same,Growth Percent,LOX IMVI,92.56%
same,inhibition at 10 µM,LOX IMVI,< 10%
same,Growth Percent,MALME-3M,92.61%
same,inhibition at 10 µM,MALME-3M,< 10%
same,inhibition at 10 µM,SK-MEL-2,13%
same,Growth Percent,SK-MEL-2,87.95%
same,inhibition at 10 µM,UACC-257,< 10%
same,Growth Percent,UACC-257,97.19%
same,inhibition at 10 µM,UACC-62,< 10%
same,Growth Percent,UACC-62,93.89%
same,inhibition at 10 µM,SK-MEL-5,16%
same,Growth Percent,SK-MEL-5,84.32%
same,melting point,,243 to 245 °C
